Values quoted from earlier work in patent US20200281958A1, “STABLE FORMULATIONS FOR THE ORAL ADMINISTRATION OF AMPHOTERICIN B AND RELATED METHODS” (priority 2015, published 2020).

Assays:
[1] = test system: latently infected T cell lines
[2] = crystalline
[3] = test system: monocytic cell lines and primary macrophages/monocytes

C[C@@H]1[C@H](O)[C@@H](C)/C=C/C=C/C=C/C=C/C=C/C=C/C=C/[C@H](O[C@@H]2O[C@H](C)[C@@H](O)[C@H](N)[C@@H]2O)C[C@@H]2O[C@](O)(C[C@@H](O)C[C@@H](O)[C@H](O)CC[C@@H](O)C[C@@H](O)CC(=O)O[C@H]1C)C[C@H](O)[C@H]2C(=O)O (relative stereo) [amphotericin B, [1R-(1R*,3S*,5R*,6R*,9R*,11R*,15S*,16R*,17R*,18S*,19E,21E,23E,25E, 27E,29E,31 E,33R*,35S*,36R*,37S)]-33-[(3-amino-3,6-dideoxy-β-D-mannopyranosyl)oxy] 1,3,5,6,9,11, 17,37-octahydroxy-15,16,18-trimethyl-13-oxo-14,39-dioxabicyclo-[33.3.1] nonatriaconta-19,21, 23,25,27,29,3 1-heptaene-36-carboxylic acid]
direct reactivation of latently infected T cell lines ([1]; T cell lines alone): did not directly reactivate
HIV-1 reactivation in T cell lines ([1]; co-culture with primary macrophages): partial HIV-1 reactivation
solubility in water [2]: insoluble in water
reactivation of HIV-1 replication [3]: reactivate HIV-1 replication
